System: Lung Cancer cell Line (A-549)
Test: Cell death / viability of A549 lung cancer cells exposed to vapour (MTT, trypan blue)
Assay type: cell-based
Conditions: for activity so far lung cancer cell death is concerned (FIG. 1C): vapors of single compounds, 1:2000 dilution, 48 h, A549
Procedure: The lung cancer cell line, A-549 were cultured in DMEM (Dulbecco's Modified Eagle Medium) containing Earle's salts and non-essential amino acids supplemented with 10% fetal calf serum, penicillin (100 U/ml) and streptomycin (100 μg/ml) in a humidified 95% O2/5% CO2 atmosphere at 37° C. Confluent cells were subcultured by trypsinization and subsequently seeded in 6 well culture plates containing DMEM with essential supplements.
After CVp treatment, cells were washed with PBS, trypsinized and re-suspended in complete growth medium. Trypan blue (0.4%) was added to the cell suspension and both live and dead cells were counted using a heamocytometer.
Cell viability was determined by performing MTT assay (Chemicon, Temecula, Calif., USA) according to manufacturer's instructions. Briefly, cells were plated in 96 well plates. Overnight after cell plating, cells were incubated with CVp. Briefly, 10 μL of 3-(4,5-dimethylthiazol-2-yl)-2-5-diphenyl tetrazolium bromide (MTT) was added to each well for 4 h at 37° C. After solubilization in 100 μL 1(N) isopropanol/0.04(N) HCl, absorbance was read at 595 nm in microplate reader (Thermo Electron Corporation, MA, USA).
The vapors generated from each of these wells were exposed to cells at 1:2000 dilution for 48 h. […] We therefore used the vapor from these combined compounds which is henceforth termed as Combined Vapour (CVp=C2+C3+C4).

Question: Which results are given for `CC(C)=CCCC(C)CC=O` (stereo not drawn) [Compound C1, Citronellal]?
Answer: activity so far lung cancer cell death is concerned (FIG. 1C): poor activity; Activity in vapour form % of cell death for Lung Cancer cell Line (A-549): 12.5 ± 3.6%

Question: How did the “Activity in vapour form % of cell death for Lung Cancer cell Line (A-549)” value (shortened to “Activity in vapour form % of cell death”) turn out when `C=C(C)C1CCC(C)CC1O` (stereo not drawn) [Compound C2, Neo-isopulegol] was run?
Answer: 30.5 ± 5.0%

Question: How did the “Activity in vapour form % of cell death” value turn out when `C=C(C)[C@@H]1CC[C@@H](C)C[C@H]1O` [Compound C3, Isopulegol] was run?
Answer: 36.0 ± 4.5%

Question: With `CC(C)=CCCC(C)CCO` (stereo not drawn) [Compound C4, Citronellol] as the compound, how does the “activity so far lung cancer cell death is concerned (FIG. 1C)” value read?
Answer: highest activity

Question: And the “Activity in vapour form % of cell death” value?
Answer: 70.0 ± 6.0%

Reference: US9622987B2, “Synergistic pharmaceutical composition useful for the treatment of lung cancer” (Council of Scientific & Industrial Research, priority 2012, dated 2017)
